According to patent US10023836B2, “Medium for yeasts” (YAMAGUCHI UNIVERSITY, priority 2012, dated 2018):

Tests used:
RAK2683 yeast strain = assay: Investigation of nitrogen source used singly in MM culture medium instead of ammonium sulfate (Table 4); type: cell-based, Saccharomyces cerevisiae; conditions: Table 4 conditions
RAK3599 strain [1] = assay: Investigation with AID and aY-AID culture medium (FIGS. 29 to 39); type: cell-based, Saccharomyces cerevisiae; conditions: for effect on proliferation when added at high concentrations: up to 1% or up to 0.2500%
Protocol: As shown in the following, an investigation was conducted into concentrations of each amino acid and a substitution potential of pantothenic acid for the amino acid in the AID culture medium. A suitable YPD culture medium was used as a control.
Next, the amino acids asparagine, isoleucine, phenylalanine, and valine were each adjusted to a culture medium additive concentration of […], 0.0312%, 0.0625%, 0.1250%, and 0.2500%, and OD600 was measured after 24 hours.
Isoleucine concentration in the aY-AID culture medium was adjusted to 0, 0.01 mg/mL, 0.1 mg/mL, 0.5 mg/mL, and 1 mg/mL, respectively, and proliferation of the RAK3599 strain was investigated.
Phenylalanine concentration in the aY-AID culture medium was adjusted to 0, 0.01, 0.1, 0.5, and 1 mg/mL, respectively, and proliferation of the RAK3599 strain was investigated.
Valine concentration in the aY-AID culture medium was adjusted to 0, 0.01, 0.1, 0.5, and 1 mg/mL, respectively, and proliferation of the RAK3599 strain was investigated.
Serine concentration in the AID culture medium was adjusted to 0, 0.01 mg/mL, 0.1 mg/mL, 0.5 mg/mL, and 1 mg/mL, respectively, and proliferation of the RAK3599 strain was investigated.
Threonine concentration in the AID culture medium was adjusted to 0, 0.01, 0.1, 0.5, and 1 mg/mL, respectively, and proliferation of the RAK3599 strain was investigated.
Asparagine concentration in the AID culture medium was adjusted to 0, 0.01, 0.1, 0.5, and 1 mg/mL, respectively, and proliferation of the RAK3599 strain was investigated.
An investigation was conducted into vitamins contained in the AID culture medium. […]

[2] = tested on: Saccharomyces cerevisiae histidine-requiring BY4714 (his3Δ1) strain; assay: Histidine concentration in AKD culture medium (FIG. 17); type: cell-based
Protocol: Histidine concentration in the AKD culture mediums was adjusted to 0.001%, 0.01%, 0.1%, and 1%, respectively, and proliferation of a Saccharomyces cerevisiae histidine-requiring BY4714 (his3Δ1) strain was investigated. A maximum value was reached between 0.01% and […]. OD600 for 1/100 solutions after 42 hours was 0.07, 0.18, 0.18, and 0.15, respectively. Given the above-noted results, a preferred histidine concentration was understood to be around 0.01%.

[3] = tested on: Saccharomyces cerevisiae RAK3599 strain; assay: Glutamine, cysteine and amino acid groups in AYD′ / AYD culture medium (FIGS. 40, 41); type: cell-based
Protocol: For the AYD′ culture medium, an investigation was conducted into glutamine and cysteine concentrations using Saccharomyces cerevisiae RAK3599 strain.

[4] = tested on: Saccharomyces cerevisiae uracil-requiring BY4700 (ura3Δ) strain; assay: Uracil concentration in AKD culture medium (FIG. 19); type: cell-based
Protocol: A concentration of uracil contained in the amino acid mix of the AKD culture mediums for convenience was adjusted to 0.001%, 0.005%, 0.05%, 0.1%, and 0.5%, respectively, and proliferation of a Saccharomyces cerevisiae uracil-requiring BY4700 (ura3Δ) strain was investigated. OD600 for 1/100 solutions after 42 hours was 0.10, 0.21, 0.21, 0.22 and 0.20, respectively. Proliferation was confirmed to be low at 0.001%, to increase at 0.005%. and to markedly increase at between 0.05% and 0.1%. Proliferation was confirmed to be somewhat inhibited at 0.5%. Given the above-noted results, a preferred uracil concentration was understood to be around 0.01%.

[5] = tested on: Saccharomyces cerevisiae adenine-requiring BY4725 (ade2Δ) strain; assay: Adenine concentration in AKD culture medium (FIG. 20); type: cell-based
Protocol: A concentration of adenine contained in the amino acid mix of the AKD culture mediums for convenience was adjusted to 0%, 0.005%, 0.01%, 0.05%, 0.1%, and 0.5%, respectively, and proliferation of a Saccharomyces cerevisiae adenine-requiring BY4725 (ade2Δ) strain was investigated. OD600 for 1/20 solutions after 42 hours was 4, 15, 18, 18, 13 and 16, respectively. […] Given the above-noted results, a preferred adenine concentration was understood to be around 0.01%.

[6] = tested on: Candida glabrata BY23876 strain; assay: Nutritional requirements in AYD culture medium (FIG. 50); type: cell-based; conditions: component eliminated from AYD culture medium
Protocol: In a case where no special provisions are made, a procedure for a cultivation experiment using the culture medium to be investigated for proliferation was such that a yeast undergoing investigation was pre-cultured in a YPD liquid culture medium at 28° C. for 24 hours, after which the yeast was adjusted such that OD600=20. Thereafter, 5 μL of culture solution was inoculated in 5 mL of each culture medium to be investigated, which had been dispensed into L-shaped test tubes (final OD60=0.02); aerobic roller tube culture was performed at 28° C.; and OD was continuously measured with an automatic spectrophotometer (BioPhoto recorder TVS062CA, […]). In addition, OD600 was measured every 15 minutes by a spectrophotometer (Cell density meter co8000, WPA). Hereafter, data is represented by graphs for a case using the automatic spectrophotometer; however, these graphs are primarily used to compare the slope of logarithmic growth phase proliferation curves for each culture medium, and because OD600 is measured without dilution, values where OD600=3 to 3.5 or more may be incorrect.
Nutritional requirements of each of the following yeast strains were investigated in the AYD culture medium, and utility of the AYD culture medium was confirmed. Each of the yeast strains was cultured under identical conditions using the basic culture method described above.

RAK3599 strain [7] = assay: Vitamin and FeCl3 concentration in AKD′ culture medium (FIGS. 22 to 28); type: cell-based, Saccharomyces cerevisiae
Protocol: (§1) In a case where no special provisions are made, a procedure for a cultivation experiment using the culture medium to be investigated for proliferation was such that a yeast undergoing investigation was pre-cultured in a YPD liquid culture medium at 28° C. for 24 hours, after which the yeast was adjusted such that OD600=20. […] In addition, OD600 was measured every 15 minutes by a spectrophotometer (Cell density meter co8000, WPA). Hereafter, data is represented by graphs for a case using the automatic spectrophotometer; however, these graphs are primarily used to compare the slope of logarithmic growth phase proliferation curves for each culture medium, and because OD600 is measured without dilution, values where OD600=3 to 3.5 or more may be incorrect.
Pyridoxine concentration in the AKD′ culture medium was adjusted to 0, 0.004, 0.04, 0.4, 4, and 40 μg/mL, respectively, and proliferation of the RAK3599 strain was investigated.
Pantothenic acid concentration in the AKD′ culture medium was adjusted to 0, 0.004, 0.04, 0.4, 4, and 40 μg/mL, respectively, and proliferation of the RAK3599 strain was investigated.
Thiamine concentration in the AKD′ culture medium was adjusted to 0, 0.004, 0.04, 0.4, 4, and 40 μg/mL, respectively, and proliferation of the RAK3599 strain was investigated.
Nicotinic acid concentration in the AKD′ culture medium was adjusted to 0, 0.004, 0.04, 0.4, 4, and 40 μg/mL, respectively, and proliferation of the RAK3599 strain was investigated.
Myo-inositol concentration in the AKD′ culture medium was adjusted to 0, 0.02 μg/mL, 0.2 μg/mL, 2 μg/mL, 20 μg/mL, and 200 μg/mL, respectively, and proliferation of the RAK 3599 strain was investigated.
FeCl3 concentration in the AKD′ culture medium was adjusted to 0, 0.002, 0.02, 0.2, 2, and 20 μg/mL, respectively, and proliferation of the RAK3599 strain was investigated.

[8] = tested on: Saccharomyces cerevisiae RAK3599 strain; assay: SynAA culture medium: elimination of single components and inorganic ion concentration; type: cell-based; conditions: one component of the inorganic ion mix eliminated from SynAA culture medium
Protocol: as §1
Culture mediums were prepared in which one component each of the components configuring the inorganic ion mix was eliminated from the SynAA culture medium, and OD600 was measured. […] Thereafter, an investigation specifically of inorganic ion concentration was conducted. […] An investigation was conducted using RAK3599 strain (hereafter, simply referred to as “RAK3599 strain”), which is a strain of Saccharomyces cerevisiae not having a particular nutritional requirement. Where no subsequent special provisions were made, proliferation was investigated by performing roller tube culture for an appropriate amount of time at 28° C. and measuring OD600.
MgSO4 concentration in the SynAA culture mediums was adjusted to 0%, 0.0001%, 0.001%, 0.01%, 0.1%, and 1%, respectively, and proliferation of the RAK3599 strain was investigated. […] Next, MgCl2 concentration in the SynAA culture mediums was adjusted to 0.001%, 0.01%, 0.1%, and 1%, respectively, and proliferation of the RAK3599 strain was investigated.
A culture medium was prepared in which one component each of the components configuring the vitamin mix was eliminated from the SynAA culture medium, with the SynAA culture medium as the control, and proliferation of the RAK3599 strain was investigated.

[9] = tested on: Saccharomyces cerevisiae tryptophan-requiring BY4710 (trp1Δ) strain; assay: Tryptophan concentration in AKD culture medium (FIG. 18); type: cell-based
Protocol: Tryptophan concentration in the AKD culture mediums was adjusted to 0.001%, 0.01%, 0.1%, and 1%, respectively, and proliferation of a Saccharomyces cerevisiae tryptophan-requiring BY4710 (trp1Δ) strain was investigated. OD600 for 1/100 solutions after 48 hours was 0.08, 0.15, 0.13, and 0.12, respectively. […] Given the above-noted results, a preferred tryptophan concentration was understood to be around 0.01%.

O=C(O)[C@@H]1CCCN1 [Proline, L-Proline]
proliferation when added singly as nitrogen source (RAK2683 yeast strain): favorable proliferation

NCC(=O)O [Glycine]
proliferation when added singly as nitrogen source (RAK2683 yeast strain): almost no proliferation
effect on proliferation when added at high concentrations (RAK3599 strain [1]; AID culture medium): proliferation was confirmed to be inhibited

Cl.N [Ammonium chloride]
proliferation when added singly as nitrogen source (RAK2683 yeast strain): did not, as a whole, exhibit favorable proliferation

Cl.N[C@@H](Cc1c[nH]cn1)C(=O)O.O [Histidine, L-Histidine hydrochloride hydrate]
preferred concentration [2]: around 0.01%
OD600 for 1/100 solutions after 42 hours ([2]; histidine 0.001%): 0.07
OD600 for 1/100 solutions after 42 hours ([2]; histidine 0.01%): 0.18
OD600 for 1/100 solutions after 42 hours ([2]; histidine 0.1%): 0.18
OD600 for 1/100 solutions after 42 hours ([2]; histidine 1%): 0.15
proliferation when added singly as nitrogen source (RAK2683 yeast strain): almost no proliferation

Cl.NCCCC[C@H](N)C(=O)O [Lysine, L-Lysine hydrochloride]
proliferation when added singly as nitrogen source (RAK2683 yeast strain): almost no proliferation

N[C@@H](CS)C(=O)O [Cysteine, L-Cysteine]
appropriate concentration ([3]; AYD′ culture medium): around 0.01 g/L
effect on proliferation when added at high concentrations (RAK3599 strain [1]; AID culture medium): proliferation was confirmed to be inhibited

CSCC[C@H](N)C(=O)O [Methionine, L-Methionine]
proliferation when eliminated from the AYD culture medium ([3]; amino acid group or individual amino acid of the AY5 group eliminated): proliferation decreases
effect on proliferation when added at high concentrations (RAK3599 strain [1]; AID culture medium): proliferation was confirmed to be inhibited

O=c1cc[nH]c(=O)[nH]1 [uracil]
concentration at which proliferation was somewhat inhibited [4]: 0.5%
preferred concentration [4]: around 0.01%
OD600 for 1/100 solutions after 42 hours ([4]; uracil 0.001%): 0.10
OD600 for 1/100 solutions after 42 hours ([4]; uracil 0.005%): 0.21
OD600 for 1/100 solutions after 42 hours ([4]; uracil 0.05%): 0.21
OD600 for 1/100 solutions after 42 hours ([4]; uracil 0.1%): 0.22
OD600 for 1/100 solutions after 42 hours ([4]; uracil 0.5%): 0.20

Nc1ncnc2nc[nH]c12 [adenine]
concentration at which proliferation was slightly inhibited [5]: ≥ 0.1%
preferred concentration [5]: around 0.01%
OD600 for 1/20 solutions after 42 hours ([5]; adenine 0%): 4
OD600 for 1/20 solutions after 42 hours ([5]; adenine 0.005%): 15
OD600 for 1/20 solutions after 42 hours ([5]; adenine 0.01%): 18
OD600 for 1/20 solutions after 42 hours ([5]; adenine 0.05%): 18
OD600 for 1/20 solutions after 42 hours ([5]; adenine 0.1%): 13
OD600 for 1/20 solutions after 42 hours ([5]; adenine 0.5%): 16

CC(=O)O.N [Ammonium acetate]
proliferation when added singly as nitrogen source (RAK2683 yeast strain): did not, as a whole, exhibit favorable proliferation

Cc1ncc(CO)c(CO)c1O.Cl [pyridoxine, Pyridoxine hydrochloride]
nutritional requirement of the strain [6]: require
preferred concentration (RAK3599 strain [7]; AKD′ culture medium): around 400 μg/L
proliferation at a content of 0 (RAK3599 strain [7]; AKD′ culture medium without the substance): A fair degree of proliferation

NC(=O)CC[C@H](N)C(=O)O [Glutamine, L-Glutamine]
appropriate concentration ([3]; AYD′ culture medium): 5 g/L
growth ([3]; AYD′ culture medium, glutamine concentration set to 10 times the previous concentration): growth was confirmed to be extremely improved
effect on proliferation when added at high concentrations (RAK3599 strain [1]; AID culture medium): proliferation was confirmed to be inhibited

N.N.O=S(=O)(O)O [Ammonium sulfate]
proliferation when the component is not added [8]: higher proliferation
proliferation when added singly as nitrogen source (RAK2683 yeast strain): proliferation was confirmed to be extremely poor

C[C@@H](O)[C@H](N)C(=O)O [Threonine, L-Threonine]
proliferation when added singly as nitrogen source (RAK2683 yeast strain): almost no proliferation
content at which proliferation particularly increased (RAK3599 strain [1]; AID culture medium): around 0.5 mg/mL
effect on proliferation when added at high concentrations (RAK3599 strain [1]; AID culture medium): proliferation was confirmed to be inhibited
preferred concentration / content (RAK3599 strain [1]; AID or aY-AID culture medium): around 0.5 g/L

N[C@@H](Cc1c[nH]c2ccccc12)C(=O)O [Tryptophan, L-Tryptophan]
concentration at which proliferation was somewhat inhibited [9]: 0.1%
preferred concentration [9]: around 0.01%
OD600 for 1/100 solutions after 48 hours ([9]; tryptophan 0.001%): 0.08
OD600 for 1/100 solutions after 48 hours ([9]; tryptophan 0.01%): 0.15
OD600 for 1/100 solutions after 48 hours ([9]; tryptophan 0.1%): 0.13
OD600 for 1/100 solutions after 48 hours ([9]; tryptophan 1%): 0.12
